In article PMC4043309 (Journal of medicinal chemistry, 2013):

Columns and labels:
Stabilities = assay type: physicochemical; settings: for stability: isomerization on storage: methanol or methanol–chloroform mixture (v/v 1:1) as solvent
[1] = biological target: T1, recombinant human estrogen receptor-α (ER-α) (Homo sapiens, UniProt P03372); assay type: binding; settings: at 100 μM compound
T1 sequence (P03372 1-595): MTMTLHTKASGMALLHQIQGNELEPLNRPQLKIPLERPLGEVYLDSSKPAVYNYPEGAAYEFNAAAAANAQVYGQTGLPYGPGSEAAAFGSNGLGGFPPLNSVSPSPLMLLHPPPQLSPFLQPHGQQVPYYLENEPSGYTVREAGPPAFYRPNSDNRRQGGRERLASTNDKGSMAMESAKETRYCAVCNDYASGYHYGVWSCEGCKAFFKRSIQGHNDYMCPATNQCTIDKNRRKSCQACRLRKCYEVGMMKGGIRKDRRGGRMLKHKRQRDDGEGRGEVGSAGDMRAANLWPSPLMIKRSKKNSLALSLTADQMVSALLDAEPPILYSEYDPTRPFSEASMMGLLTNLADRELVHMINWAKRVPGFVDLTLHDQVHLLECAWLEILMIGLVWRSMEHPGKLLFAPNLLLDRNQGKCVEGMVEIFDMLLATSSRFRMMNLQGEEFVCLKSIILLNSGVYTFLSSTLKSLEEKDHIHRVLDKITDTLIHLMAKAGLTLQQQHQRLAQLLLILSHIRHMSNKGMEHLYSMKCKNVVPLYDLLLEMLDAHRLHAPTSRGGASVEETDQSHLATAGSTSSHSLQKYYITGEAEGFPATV

[2] = biological target: T2, recombinant human aromatase (CYP19) (Homo sapiens, UniProt P11511); assay: Inhibition of recombinant human aromatase
T2 sequence (P11511 1-503): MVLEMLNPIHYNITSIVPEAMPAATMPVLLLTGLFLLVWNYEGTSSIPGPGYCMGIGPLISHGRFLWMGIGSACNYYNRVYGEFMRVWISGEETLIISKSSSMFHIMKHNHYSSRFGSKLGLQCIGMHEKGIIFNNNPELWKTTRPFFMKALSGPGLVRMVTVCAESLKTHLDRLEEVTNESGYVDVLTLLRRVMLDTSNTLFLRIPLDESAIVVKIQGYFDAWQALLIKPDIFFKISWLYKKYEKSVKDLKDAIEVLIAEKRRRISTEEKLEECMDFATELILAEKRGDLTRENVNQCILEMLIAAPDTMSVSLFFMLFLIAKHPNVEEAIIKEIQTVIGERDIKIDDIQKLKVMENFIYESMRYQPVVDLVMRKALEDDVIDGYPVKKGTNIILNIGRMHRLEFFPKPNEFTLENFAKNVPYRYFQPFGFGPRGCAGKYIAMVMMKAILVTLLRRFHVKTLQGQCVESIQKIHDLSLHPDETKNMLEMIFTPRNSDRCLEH

[3] = biological target: recombinant human estrogen receptor-β (ER-β) (Homo sapiens, UniProt Q92731); assay type: binding; settings: at 100 μM compound
Chain of recombinant human estrogen receptor-β (ER-β) (Q92731 whole entry): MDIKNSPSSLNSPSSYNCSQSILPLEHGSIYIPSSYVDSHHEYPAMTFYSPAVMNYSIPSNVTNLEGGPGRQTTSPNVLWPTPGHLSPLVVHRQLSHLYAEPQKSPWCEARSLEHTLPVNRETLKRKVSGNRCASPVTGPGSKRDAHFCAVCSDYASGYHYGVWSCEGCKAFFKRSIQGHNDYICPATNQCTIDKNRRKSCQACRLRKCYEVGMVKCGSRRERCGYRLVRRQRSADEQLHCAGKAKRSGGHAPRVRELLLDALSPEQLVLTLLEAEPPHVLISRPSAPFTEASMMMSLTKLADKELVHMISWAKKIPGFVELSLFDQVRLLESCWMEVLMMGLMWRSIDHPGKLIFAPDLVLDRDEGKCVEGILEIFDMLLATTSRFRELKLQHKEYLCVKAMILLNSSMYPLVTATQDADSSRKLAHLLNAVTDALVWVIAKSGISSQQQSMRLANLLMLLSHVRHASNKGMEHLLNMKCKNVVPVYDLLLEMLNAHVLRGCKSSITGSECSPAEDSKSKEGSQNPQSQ

stability: isomerization to mixed (E,Z)-norendoxifen (Stabilities; chloroform (or dichloromethane) as the single solvent) | ER-α percent competition [1] [% competition] | fold less potent against aromatase than mixed (E,Z)-norendoxifen [2] [fold] | ER-β percent competition [3] [% competition] | Compound | stability: isomerization on storage (Stabilities)
 |  |  |  | CC/C(=C(/c1ccc(O)cc1)c1ccc(OCCN)cc1)c1ccccc1 [E-4, (E)-4-(1-(4-(2-Aminoethoxy)phenyl)-2-phenylbut-1-enyl)phenol] | stored for at least a few weeks without substantial isomerization
fast isomerization |  |  |  | CC/C(=C(\c1ccc(O)cc1)c1ccc(OCCN)cc1)c1ccccc1 [Z-4, (Z)-4-(1-(4-(2-Aminoethoxy)phenyl)-2-phenylbut-1-enyl)phenol] | stored for at least a few weeks without substantial isomerization
 | 80 |  |  | CCC(=C(c1ccc(O)cc1)c1ccc(O)cc1)c1ccccc1 [compound 2, 4,4′-(2-Phenylbut-1-ene-1,1-diyl)diphenol] | 
 | 57 | 90 | 71 | CC/C(=C(\c1ccc(O)cc1)c1ccc(OCC(N)=O)cc1)c1ccccc1 [compound 3, (E,Z)-2-(4-(1-(4-Hydroxyphenyl)-2-phenylbut-1-enyl)phenoxy)-acetamide] | 
 | 68 |  | 68 | CC/C(=C(/c1ccc(O)cc1)c1ccc(OC(=O)C(C)(C)C)cc1)c1ccccc1 [compound 6, (E)-4-(1-(4-Hydroxyphenyl)-2-phenylbut-1-enyl)phenyl Pivalate] | 
 | 56 |  | 45 | CC/C(=C(/c1ccc(OCC(N)=O)cc1)c1ccc(OC(=O)C(C)(C)C)cc1)c1ccccc1 [compound 7, (E)-4-(1-(4-(2-Amino-2-oxoethoxy)phenyl)-2-phenylbut-1-enyl)-phenyl Pivalate] | 
